# Source: US20220387552A1, “METHODS OF MODULATING HAIR FOLLICLE STEM CELL QUIESCENCE BY MODULATING DERMAL NICHE ACTIVATOR GAS6” (President and Fellows of Harvard College, priority 2019, published 2022)
# Entries after “also recorded” stand apart in the source; their conditions may differ.
# B1: Gas6: recombinant mouse Gas6 protein (R&D systems, Cat #8310-GS); gamma-carboxyglutamic acid-containing secreted protein, AXL ligand (protein, UniProt Q61592 28-674, looked up)
# Growth arrest-specific …: VLLRAREAAQFLRPRQRRAYQVFEEAKQGHLERECVEEVCSKEEAREVFENDPETEYFYPRYQECMRKYGRPEEKNPDFAKCVQNLPDQCTPNPCDKKGTHICQDLMGNFFCVCTDGWGGRLCDKDVNECVQKNGGCSQVCHNKPGSFQCACHSGFSLASDGQTCQDIDECTDSDTCGDARCKNLPGSYSCLCDEGYTYSSKEKTCQDVDECQQDRCEQTCVNSPGSYTCHCDGRGGLKLSPDMDTCEDILPCVPFSMAKSVKSLYLGRMFSGTPVIRLRFKRLQPTRLLAEFDFRTFDPEGVLFFAGGRSDSTWIVLGLRAGRLELQLRYNGVGRITSSGPTINHGMWQTISVEELERNLVIKVNKDAVMKIAVAGELFQLERGLYHLNLTVGGIPFKESELVQPINPRLDGCMRSWNWLNGEDSAIQETVKANTKMQCFSVTERGSFFPGNGFATYRLNYTRTSLDVGTETTWEVKVVARIRPATDTGVLLALVGDDDVVPISVALVDYHSTKKLKKQLVVLAVEDVALALMEIKVCDSQEHTVTVSLREGEATLEVDGTKGQSEVSTAQLQERLDTLKTHLQGSVHTYVGGLPEVSVISAPVTAFYRGCMTLEVNGKILDLDTASYKHSDITSHSCPPVEHATP
# Columns and labels:
# [1] = system: ADX mice; experiment: Hair cycle progression of ADX mice treated topically with R428; type: in vivo; details: R428 2 mM in ethanol, topical once a day, back skin of ADX mice
# Procedure: (§1) C57BL/6J mice were anesthetized. Small incisions were made on the back skin right on top of each adrenal gland. Both adrenal glands were removed with a pair of curved forceps. Sham-operated mice (Sham) underwent the same procedures as the ADX mice, except their adrenal glands were not removed.
# RU486 (TCI America, Cat #M1732; 4% in ethanol) was used to induce K15-CrePGR by topical application for 10-14 days. To induce Pdgfra-CreER and Sox2-CreER, tamoxifen (Millipore Sigma, T5648; 20 mg/kg) was injected into mice intraperitoneally once per day for 4 to 6 days. To inhibit AXL activity, R428 (APExBIO, A8329; 2 mM in ethanol) was applied to ADX mice topically once a day. EdU (Lumiprobe Corporation, Cat #10540; 25 mg/kg) were administered by intraperitoneal injections. AAVs were produced as described previously^46 and injected directly into dermis through intradermal injections. 2-month-old C57BL/6J mice were injected with AAV-GFP or AAV-Gas6 (1×10^11 genome copy number per animal).
# The hair cycle progression was documented by standardized photographs at the start of each experiment and weekly thereafter. Anagen was determined by darkening of the skin followed by hair growth as previously described^75. The back skin of mice was shaved with an electric clipper to reveal skin colour changes and hair coat recovery. […] Telogen length was quantified as described previously^19.
# [2] = system: FACS-purified HFSCs; experiment: Colony formation assay of cultured HFSCs; type: cell-based, mouse
# Procedure: For the isolation of HFSCs, mouse dorsal skin was dissected, and the fat layer was removed using a surgical scalpel. The skin was incubated in trypsin-EDTA at 37° C. for 35-45 min on an orbital shaker. Single-cell suspension was obtained by scraping the epidermal side and filtering. Cells were centrifuged for 8 min at 350 g at 4° C., resuspended in 5% fetal bovine serum, and stained for 30-40 min. The following antibodies were used: CD49f (Integrin alpha 6)-PE (eBioscience, 12-0495-82; 1:500); CD34-eFlour660 (eBioscience, 50-0341-82; 1:100); Sca-1-PerCP-Cy5.5 (eBioscience, 45-5981-82; 1:1000); and CD45-eFlour450 (eBioscience, 48-0451-82; 1:250). The HFSCs were isolated as CD45^−, Integrin alpha 6^+, CD34^+, Sca-1^− cells.
# FACS-purified HFSCs were plated on mitomycin C (P212121, Cat #M92010)-treated J2 fibroblast feeders at a density of 10,000 cells/well of 12-well plates, in E media supplemented with 15% (v/v) serum and 0.3 mM calcium as described in previous studies^78,79. For Gas6-treatment, E medium was supplemented with recombinant mouse Gas6 protein (R&D systems, Cat #8310-GS) at 500 ng/ml. For R428-treatment experiments, E medium was supplemented with R428 (APExBIO, Cat #A8329) at 1 μM. Cells were fixed and stained with 1% (wt/vol) Rhodamine B (Millipore Sigma, R6626). Colony diameter was measured from scanned images of plates using Image J.
# [3] = system: ADX mice; experiment: Hair cycle progression of ADX mice fed corticosterone in drinking water; type: in vivo; details: 35 μg/ml corticosterone in drinking water
# Procedure: as §1
# The hair cycle progression was documented by standardized photographs at the start of each experiment and weekly thereafter. Anagen was determined by darkening of the skin followed by hair growth as previously described^75. The back skin of mice was shaved with an electric clipper to reveal skin colour changes and hair coat recovery. Once the hair coat recovery reached ˜90% of the back skin, the mice were shaved again to monitor the entry into next anagen. Telogen length was quantified as described previously^19.
# Control animals received the vehicle water.
# [4] = system: hair follicle; details: corticosterone feeding mice
# Procedure: 35 μg/ml Corticosterone (Millipore Sigma, C2505) was dissolved in vehicle (0.45% hydroxypropyl-β-cyclodextrine in drinking water) in drinking water during the entire corticosterone feeding period. Corticosterone water was changed every 3 days to prevent degradation. Control animals received the vehicle water.
# The skin samples were fixed in 4% paraformaldehyde (PFA, Electron Microscopy Sciences, Cat #15713) for 15 min at room temperature, washed in phosphate buffered saline (PBS), immersed in 30% sucrose solution overnight at 4° C., and embedded in optimal cutting temperature compound (Sakura Finetek, Cat #4583). 35 μm thick sections were fixed in 4% PFA. The fixed slides were then blocked in blocking buffer (5% Donkey serum, 1% bovine serum albumin, 2% cold-water fish gelatin in 0.3% Triton X-100 in PBS) for 1 h at room temperature, incubated with primary antibodies overnight at 4° C., and incubated with secondary antibodies for 2-4 h at room temperature. The following antibodies and dilutions were used: CD34 (eBioscience, 14-0341-85, 1:100), P-Cadherin (R&D Systems, AF761, 1:400), GFP (Abcam, ab290, 1:5000) and Cleaved Caspase-3 (Cell Signaling Technology, 1:300). DAPI was used as a counterstain for the nucleus.
# [5] = system: C57BL/6 mice; experiment: Hair cycle progression of C57BL/6 mice under chronic corticosterone feeding; type: in vivo; details: wild-type mice, supplemental corticosterone in drinking water from second telogen; vehicle mice entered anagen around P90-P100
# Procedure: The hair cycle progression was documented by standardized photographs at the start of each experiment and weekly thereafter. Anagen was determined by darkening of the skin followed by hair growth as previously described^75. The back skin of mice was shaved with an electric clipper to reveal skin colour changes and hair coat recovery. Once the hair coat recovery reached ˜90% of the back skin, the mice were shaved again to monitor the entry into next anagen. Telogen length was quantified as described previously^19. 35 μg/ml Corticosterone (Millipore Sigma, C2505) was dissolved in vehicle (0.45% hydroxypropyl-β-cyclodextrine in drinking water) in drinking water during the entire corticosterone feeding period. Corticosterone water was changed every 3 days to prevent degradation. Control animals received the vehicle water.
# [6] = Plasma corticosterone levels by ELISA after corticosterone feeding; type: in vivo, mice
# Procedure: 35 μg/ml Corticosterone (Millipore Sigma, C2505) was dissolved in vehicle (0.45% hydroxypropyl-β-cyclodextrine in drinking water) in drinking water during the entire corticosterone feeding period. Corticosterone water was changed every 3 days to prevent degradation. Control animals received the vehicle water. Blood corticosterone levels were measured by ELISA (ARBOR assays, [MUT]-H1) according to the manufacturer's instruction. Serum was collected using the heparinized tubes (Microvette® CB 300 LH or Microvette® 300 LH, Sarstedt) between 10 a.m. and 12 p.m.
molecule,measurement,setting,value
Nc1nc(Nc2ccc3c(c2)CC[C@@H](N2CCCC2)CC3)nn1-c1cc2c(nn1)-c1ccccc1CCC2 [R428],anagen entry / hair growth (hair cycle progression),[1],suppressed their precocious anagen entry; also recorded: repress the phenotypes of ADX; also recorded: inhibit hair growth
same,HFSC colony formation,[2]; R428 at 1 μM in E medium,inhibited HFSC colony formation
C[C@]12C[C@H](O)[C@H]3[C@@H](CCC4=CC(=O)CC[C@@]43C)[C@@H]1CC[C@@H]2C(=O)CO [corticosterone],HFSC activation / quiescence (hair cycle progression),[3],effectively suppressed the aberrant activation of HFSCs; also recorded: suppress the loss of HFSC quiescence of ADX mice
same,abnormal cell death in hair follicle (aCAS3),[4],does not display abnormal cell death
same,anagen entry (hair cycle progression),[5],stayed in telogen
same,plasma corticosterone levels,"[6]; ADX mice, corticosterone in drinking water",restored
same,corticosterone levels in the circulation,"[6]; wild-type mice, supplemental corticosterone in drinking water",enhanced corticosterone levels in the circulation
B1,HFSC colony formation,[2]; recombinant mouse Gas6 protein at 500 ng/ml in E medium,formed more colonies
